Among the test systems are A498; NCI-H460; UACC-62; HCC 2998; HCT-116; OVCAR-5; ACHN; A549; SF-539; NCI-H23; NCI/ADR-RES; EKVX; Malme-3M; PC-3; MOLT-4; CAKI-1; HL-60; IGROV-1; UACC-257.
Common to all, as to assay: NCI tumour cell line growth inhibition, 48 h

Values joined by “and” are separate entries in the source; they are usually repeats but may differ in a detail not shown here. Identical values can stand only once.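 These data come from cells grown in 96-well plates and exposed to compound for 48 hours at five concentrations. GI50 = concentration required for 50% inhibition of growth.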 Active and inactive are the calls of the source. Rule as the data show it: active = GI50 up to about 1.1 µM and inactive = higher.

Regarding `Cc1ccc(S(=O)(=O)NC(=O)Nc2nnc(S(N)(=O)=O)s2)cc1`, the GI50 in the test with A498, in the test on NCI-H460, in the test with UACC-62, in the test with HCC 2998, with HCT-116 and in the test with OVCAR-5 was > 100 µM (inactive) each time. In addition, the GI50 in the test with ACHN, in the test with A549, with SF-539, in the test with NCI-H23, with NCI/ADR-RES and in the test with EKVX was > 100 µM (inactive) each time. The GI50 in the test on Malme-3M, in the test on PC-3, with MOLT-4, with CAKI-1 and in the test on HL-60 was > 100 µM (inactive) throughout.

`COc1ccc(C/C=C(\C)CCO)cc1`: the GI50 in the test with NCI-H460, in the test on UACC-62, in the test on IGROV-1, in the test on HCT-116, in the test with UACC-257 and with OVCAR-5 was > 100 µM (inactive) throughout. Besides, the GI50 with ACHN, in the test on A549, in the test with SF-539, with NCI-H23, in the test on NCI/ADR-RES and in the test on EKVX was > 100 µM (inactive) each time. Also, the GI50 in the test with PC-3 was > 100 µM (inactive); with MOLT-4, > 100 µM (inactive); with CAKI-1 it was 38.5 µM (inactive).

On to `COc1c2c(c(OC)c3c(=O)cc(C/C(=N/NC(=O)C[n+]4ccccc4)C(=O)Nc4cc(C)ccc4C)oc13)OCO2`, for which the GI50 in the test with A498, in the test on NCI-H460, with UACC-62, in the test on HCC 2998, with IGROV-1 and in the test with HCT-116 was > 100 µM (inactive) in each case. Moreover, the GI50 in the test with UACC-257, in the test with OVCAR-5, with ACHN, with A549, in the test with SF-539 and with NCI-H23 was > 100 µM (inactive) each time. For the same compound, the GI50 in the test with EKVX, with Malme-3M, in the test on MOLT-4, with CAKI-1 and in the test with HL-60 was > 100 µM (inactive) in each case.

For `CC(=O)OC(/C=C/c1ccccc1)P1(=O)N(CC(C)(C)C)[C@@H]2CCCC[C@H]2N1CC(C)(C)C` (stereo partly specified), the GI50 in the test on A498 was 8.28 µM (inactive); with NCI-H460, 6.24 µM (inactive) and 4.84 µM (inactive); in the test with UACC-62, 9.2 µM (inactive) and 8.99 µM (inactive); with HCC 2998, 5 µM (inactive) and 2.77 µM (inactive); with IGROV-1 it was 5.11 µM (inactive) and 6.78 µM (inactive); with HCT-116, 4.14 µM (inactive) and 3.53 µM (inactive). For the same compound, the GI50 in the test on UACC-257 was 4.07 µM (inactive) and 3.3 µM (inactive); with OVCAR-5, 10.7 µM (inactive) and 9.86 µM (inactive); in the test with ACHN it was 10 µM (inactive) and 7.57 µM (inactive); in the test on A549, 5.05 µM (inactive) and 4.55 µM (inactive); in the test on SF-539, 8.11 µM (inactive) and 13.6 µM (inactive); with NCI-H23, 7.05 µM (inactive) and 5.18 µM (inactive). Besides, the GI50 is 5.89 µM (inactive) and 5.11 µM (inactive) with NCI/ADR-RES; 5.27 µM (inactive) and 5.68 µM (inactive) in the test with EKVX; 12.3 µM (inactive) and 13.1 µM (inactive) in the test on Malme-3M; 3.44 µM (inactive) and 3.03 µM (inactive) in the test on PC-3; 3.63 µM (inactive) and 3.83 µM (inactive) in the test on MOLT-4; 12.8 µM (inactive) and 8.99 µM (inactive) in the test on CAKI-1. The GI50 in the test with HL-60 was 5.37 µM (inactive) and 5.71 µM (inactive).

For the compound `COc1c(CC(C)=O)ccc2c1C(=O)c1ccc(C=O)c(OC(C)=O)c1C2=O`, the GI50 in the test on A498 is 27.3 µM (inactive); in the test on NCI-H460 it was 23.3 µM (inactive); in the test with UACC-62, 4.55 µM (inactive); in the test with HCC 2998, 11.5 µM (inactive); in the test on IGROV-1, 18.9 µM (inactive); in the test with HCT-116, 11.9 µM (inactive). In addition, the GI50 is 14.3 µM (inactive) with UACC-257; 15.3 µM (inactive) with OVCAR-5; 15.1 µM (inactive) with ACHN; 31.8 µM (inactive) in the test with A549; 7.89 µM (inactive) in the test with SF-539; > 10 µM (inactive) with NCI-H23. Besides, the GI50 was 23.3 µM (inactive) with EKVX; 12.7 µM (inactive) with Malme-3M; 11.4 µM (inactive) in the test on MOLT-4; 17.8 µM (inactive) with CAKI-1; 5.06 µM (inactive) with HL-60.

Turning to `Cc1ccc(S(=O)(=O)N/N=C/c2oc(-c3ccncc3)c(-c3ccncc3)c2[N+](=O)[O-])cc1`, the GI50 in the test on A498, in the test with NCI-H460, in the test on UACC-62, in the test with HCC 2998, in the test with IGROV-1 and with HCT-116 was > 100 µM (inactive) each time. Also, the GI50 in the test with UACC-257, in the test on OVCAR-5, with ACHN, with A549, in the test on SF-539 and in the test with NCI-H23 was > 100 µM (inactive) throughout. The GI50 in the test on EKVX, in the test with Malme-3M, in the test on MOLT-4, in the test with CAKI-1 and in the test on HL-60 was > 100 µM (inactive) throughout.

Turning to `CCN1C(=O)C(=CN)C(=O)N(CC)C1=O`, the GI50 with A498, with NCI-H460, in the test with UACC-62, with HCC 2998, with IGROV-1 and in the test on HCT-116 was > 100 µM (inactive) throughout. Further, the GI50 in the test with UACC-257, with OVCAR-5, in the test with ACHN, with A549, in the test with SF-539 and with NCI-H23 was > 100 µM (inactive) each time. Further, the GI50 in the test on EKVX, in the test with Malme-3M, in the test with MOLT-4, with CAKI-1 and with HL-60 was > 100 µM (inactive) each time.

With `CCCCCC(=O)N[C@H]1CCc2cc(OC)c(OC)c(OC)c2-c2ccc(SC)c(=O)cc21`, the GI50 in the test with A498 is 0.0172 µM (active); in the test with NCI-H460, < 0.01 µM (active); in the test on UACC-62 it was 0.0204 µM (active); in the test with HCC 2998 it was 0.0212 µM (active); in the test with IGROV-1, 0.0241 µM (active); in the test on HCT-116, 0.02 µM (active). For the same compound, the GI50 with UACC-257 was < 0.01 µM (active); in the test with OVCAR-5, 47.3 µM (inactive); with ACHN, 0.0374 µM (active); in the test with A549 it was 0.0306 µM (active); in the test with SF-539 it was 0.0158 µM (active); in the test on NCI-H23, < 0.01 µM (active). Moreover, the GI50 in the test on EKVX is 0.0395 µM (active); with Malme-3M, 0.0106 µM (active); in the test on MOLT-4, 0.0516 µM (active); in the test on CAKI-1, 0.0914 µM (active); with HL-60 it was < 0.01 µM (active).

(Values after ChEMBL document CHEMBL1201862, “PubChem BioAssay data set” (2004).)
